Series [1] has as its system HCT-116 colorectal carcinoma xenograft. The experiment in a line: In vivo efficacy in mouse HCT-116 colorectal carcinoma xenograft model. As to the method:
The in vivo efficacy and toxicity of D3 was evaluated in a mouse HCT-116 colorectal carcinoma xenograft model.
Female athymic BALB/c nude mice (ARC, West Australia), 18-20 weeks of age, are fed with sterilized tap water (ad libitum water) and irradiated standard rodent diet consisting of: 19% protein, 5% fat, and 5% fiber. Mice are housed in individual ventilated cages on 12-hour light cycle at 21-22° C. and 40-60% humidity. Biological Resource Centre, Biopolis (BRC) complies with the recommendations of the guide for care and use of Laboratory Animals with respect to restraint, husbandry, surgical procedures, feed and fluid regulation, and veterinary care. The animal cares and use program (#070276) at BRC was Institutional Animal Care and Use Committee (IACUC) accredited.
D3 was provided in powder form, dissolved in 10% DMSO in sterile 1×PBS and stored in −20° C. Every mouse will receive a dose of 30-60 mg per kilogram body weight by intraperitoneal injection (ip).
Mice were implanted subcutaneously in the left flank with 5×10^6 cells of HCT-116 parental human colon carcinoma. The tumors were allowed to grow for 8 days and thereafter monitored every 2-3 days by caliper.
On the day 1, nude mice were divided into 2 groups according to tumor volume to ensure tumor volume evenly distributed into each group. Each group comprised 7 animals. Drug treatment was initiated on day 1. D3 is administered ip at doses of 30 mg/kg for 7 days followed by 60 mg/kg for another 5 days on once-a-day basis. Another group of mice received receive only vehicle by ip route. […] The study was terminated on Day 14.
Estimated tumor volume was calculated using the formula:
Tumor volume (mm^3)=(w^2×l)/2
where w=width and l=length in mm of an HCT-116 carcinoma.
Compound efficacy was assessed by the tumor growth inhibition (TGI) method in which tumor volume of treatment groups are compared to the vehicle controls. The percent tumor growth inhibition (% TGI) is calculated as follows:
% TGI=[…]×100
where: • Cday 1=median tumor volume for the control group (vehicle) on day 1 • Cday a=median tumor volume for the control group (vehicle) on day a • Tday a=median tumor volume for a treatment group on day a Animals classified as NTRD (non-treatment-related deaths) were excluded from TGI calculations.
The two sample t-test was used to determine the statistical significance of body weight changes and tumor volumes between groups. Statistical analyses were conducted at a p level of 0.05. SPSS was used for all statistical analyses and graphic presentations.

For another series, the system named is HCT115 ER-E2F1 cells. The experiment in a line: E2F1-induced apoptosis assay (ER-E2F1 activated by 4-OHT), FACS subG1. The format is cell-based. An excerpt: Two assays were used to measure the compound's activity in induce apoptosis. The first assay measures the activity of compound to activate E2F1-induced apoptosis. In this assay, transcription factor E2F1 was engineered with ER receptor ligand binding domain. Addition of 4-OHT will be able to activate ER-E2F1 complex activity.
Fluorescence activated cell sorting (FACS) also known as flow cytometry is the technique used to determine apoptosis in this set of experiments. Apoptosis is indicated by cell populations with DNA content in the subG1 range. To determine the activity of these compounds, the inventors used HCT115 ER-E2F1 cells to determine the activity of the compound in inducing E2F1-dependent apoptosis. In this assay, addition of 4-OHT ligand will activate E2F1. DZNep has been show previously to activate OHT-induced apoptosis in this system.

Series [2] is described as follows: Maximum tolerated dose in vivo. The settings on record: compared to DZNep.

Structures can show the parent of a compound that is named as a salt.

Regarding `Nc1ncnc2c1ncn2[C@@H]1CC[C@@H](O)[C@H]1O` [Compound I3, (1R,2S,3R)-3-(6-amino-9H-purin-9-yl)cyclopentane-1,2-diol], the tumor growth inhibition result in series [1] (I3 30 mg/kg, day 6) is “about 40%”; in series [1] (I3 30 mg/kg, day 8), ~43%; in series [1] (I3 30 mg/kg, day 10), ~31%; in series [1] (I3 30 mg/kg, day 13), ~35%; in series [1] (I3 30 mg/kg, end point day 14), ~34%; in series [1] (I3 60-80 mg/kg, day 6), “about 50%”. For the same compound, the tumor growth inhibition was ~65% in series [1] (I3 60-80 mg/kg, day 8); ~60% in series [1] (I3 60-80 mg/kg, day 10); ~68% in series [1] (I3 60-80 mg/kg, day 13); ~63% in series [1] (I3 60-80 mg/kg, end point day 14). Also, the “tumor volume versus vehicle group” value is listed as “statistically significantly smaller” in series [1] (I3 30 mg/kg, p=0.037) and “statistically significantly smaller” in series [1] (I3 60 mg/kg, p=0.000).
For the compound `COCC1=C[C@@H](n2cnc3c(N)ncnc32)[C@H](O)[C@@H]1O` [Compound 25, (1S,2R,5R)-5-(6-amino-9H-purin-9-yl)-3-(methoxymethyl)cyclopent-3-ene-1,2-diol hydrochloride], in the series with HCT115 ER-E2F1 cells (compared with DZNep), the “ability to cause apoptosis in the induction of E2F1-dependent apoptosis” value is “as effectively as DZNep”. For the same compound, the “E2F1 Induced apoptosis (+4-OHT) % Apoptosis” value in the series with HCT115 ER-E2F1 cells (with 4-OHT (value in parentheses)) is 60%. For the same compound, the “tumor volume versus vehicle group” value in series [1] (D3 ip 30 mg/kg 7 days then 60 mg/kg 5 days, p=0.033) is “statistically significantly smaller”. Besides, the tumor growth inhibition result in series [1] (D3 ip 30 then 60 mg/kg, day 7) is given as “about 49%”; in series [1] (D3 ip 30 then 60 mg/kg, day 9) it was ~56%; in series [1] (D3 ip 30 then 60 mg/kg, day 12), ~54%; in series [1] (D3 ip 30 then 60 mg/kg, end point day 14), ~54%. Moreover, the “maximum tolerated dose (MTD)” value in series [2] is given as “higher”.

The values are drawn from US20110237606A1, “3-Deazaneplanocin Derivatives” (AGENCY OF SCIENCE, TECHNOLOGY AND RESEARCH, priority 2008, published 2011).
